Measured values from PMC11189555, “Aryl amino acetamides prevent Plasmodium falciparum ring development via targeting the lipid-transfer protein PfSTART1” (Nature Communications, 2024).
pEC50: −log10 of the molar value. Several values for one entry are separate records, joined by “and”; a condition that tells them apart may be missing. Identical values can stand only once. Like-named read-outs stand apart in the source and are kept apart here.

System: SLI-WT parasites
Experiment: Growth inhibition assay (72 h, LDH activity)
Type: cell-based, Plasmodium falciparum
Settings: for Growth inhibition, (1 - av / DMSO) x 100: Fig 2B source data, per biological replicate; for sample/DMSO: START(WT); for pEC50: Plasmodium falciparum; for percent growth inhibition relative to DMSO control: START(WT) (SLI-WT)
Procedure: Parasite growth assays with inhibitory compounds were performed as per[11] and are fully described in the Supplementary Information.
Molecular biology and transfection of P. falciparum: Selection Linked Integration […]
To introduce the PfSTART1 mutations, the second half of the coding sequence of pfstart1 (PF3D7_0104200), was recodonised without introns to the bias of Saccharomyces cerevisiae containing either WT, N309K or N330K mutations, and synthesised as gBlock fragments (Integrated DNA Technologies). The first 819 bp of the 5′ native sequence of pfstart1 was amplified from gDNA, to form the 5’ homology block (5’ HB). The 3′ recodonised gBlock fragment comprising of the last 552 bp of either the WT, N309K or N330K pfstart1 to form the ‘recodon’ block (primers listed in Table S2). The 5’ HB and recodon products were sewn together by overlapping PCR to reconstitute the full coding sequence of pfstart1. These blocks (WT/N309K/N330K) were digested with BglII/PstI, and inserted into the parasite vector p-HA-2A-Neo-glmS
1. This plasmid contains an in -frame haemagglutinin (HA) epitope for protein identification and a P2A peptide (2A) to skip continuous peptide bond synthesis of a downstream neomycin resistance gene ( NeoR).
Parasites containing the transfected DNA were selected using 2.5 nM WR99210 (Jacobus). To select for parasites in which single crossover integration had occurred into the pfstart1 locus, parasites were treated with 400 μg/mL G418 (geniticin, Sigma Aldrich) for 14 days: only parasites that have integrated the construct into their genome expressed the neomycin resistance gene together with the PfSTART1 protein.
Parasite lines were cloned using limiting dilution. These clones were then tested on Western Blot (for correct HA-tagging and protein size), and correct integration and sequence were tested by PCR analysis: PCR on the gDNA was conducted using the primers START_5’UTR.F and START_Seq.R (Table S2). […]
Growth inhibition assays. Synchronised ring-stage parasites (0.3-0.6% parasitemia, 2% haematocrit) were grown for 72 h in a serial-dilution of the compound under […]
and compound 4. Note that M-833 was first purchased from MolPort (MolPort -002-267-916) then made in-house at WEHI: the differences observed in EC50s across experiments are attributed to the different batches of M -833. For some experiments, 0, 0.25 or 2.5 mM of glucosamine (GlcN) was also added. Experiments were set up in technical duplicates or triplicates. Following a freeze -thaw cycle, lactate dehydrogenase (LDH) activity was assessed as an indicator of parasite growt h 5. 30 μL of parasite culture was incubated for 30 min in the dark with 75 μL Malstat mixture (0.1 M Tris pH 9.0, 20 g/L lactic acid, pH 7.5, 0.2% Triton-X100, 0.5 g/L acetylpyridine adenine dinucleotide (APAD, Sigma), 200 μg/mL nitroblue tetrazolium (NBT; Sigma), 1 μg/mL phenozine ethosulfate (PES; Sigma)). Absorbance was then measured at 650 nm, transformed using the formula below, plotted against the logarithm of the concentrations, and a non-linear regression (log(inhibitor) vs. response, variable slope) was calculated using GraphPad Prism to assess the half-inhibitory […]
Growth inhibition % = (1 − average(sample)− average(uRBC)) ∗ 100 […]
The DMSO samples were also used to assess growth of parasite in the presence of 0.25 and 2.5 mM GlcN (normalised by DMSO in 0 mM GlcN).
Egress, invasion & recovery assay. To measure egress, invasion and follow up recovery in the presence of different compounds, we adapted the method developed in6, using Hyp1-Nluc parasites7. These parasites episomally express the exported PEXEL protein Hyp1 (PF3D7_0113300) tagged with a NanoLuc luciferase (NLuc) and were selected with 2.5 nM WR99210 (Jacobus). Highly synchronised schizonts were obtained using ML10 (LifeArc) and sorbitol synchronisation, and Percoll-purified (the culture was gently layered over 67% Percoll (Cytiva) in RPMI, and centrifuged for 15 min at 1500 g and the schizont layer was collected and washed). […]

SMILES: Cc1cc(Cl)c(S(=O)(=O)N2CCCC2)cc1OCC(=O)NC1CCCCC1 [M-833]
- Growth inhibition, (1 - av / DMSO) x 100 (SLI-WT, M-833 conc 0.00152416 (unit not given)): 17.8235% and 9.909% and 33.7545%
- Growth inhibition, (1 - av / DMSO) x 100 (SLI-WT, M-833 conc 0.00457247 (unit not given)): 32.5193% and 13.2196% and 48.23%
- Growth inhibition, (1 - av / DMSO) x 100 (SLI-WT, M-833 conc 0.0137174 (unit not given)): 64.9814% and 33.9327% and 65.9574%
- Growth inhibition, (1 - av / DMSO) x 100 (SLI-WT, M-833 conc 0.0411523 (unit not given)): 82.6478% and 70.7748% and 84.2144%
- Growth inhibition, (1 - av / DMSO) x 100 (SLI-WT, M-833 conc 0.123457 (unit not given)): 87.5893% and 87.6138% and 93.5055%
- Growth inhibition, (1 - av / DMSO) x 100 (SLI-WT, M-833 conc 0.37037 (unit not given)): 88.1748% and 91.0017% and 95.8283%
- Growth inhibition, (1 - av / DMSO) x 100 (SLI-WT, M-833 conc 1.11111 (unit not given)): 89.8172% and 92.0512% and 95.1872%
- Growth inhibition, (1 - av / DMSO) x 100 (SLI-WT, M-833 conc 3.33333 (unit not given)): 91.3453% and 92.3754% and 94.862%
- Growth inhibition, (1 - av / DMSO) x 100 (SLI-WT, M-833 conc 10 (unit not given)): 91.9594% and 91.8274% and 95.2708%
- sample/DMSO (M-833 0.000508053 uM, 0 mM GlcN, biological replicates 1-3): 27.927 and 21.9727 and 25
- sample/DMSO (M-833 0.000508053 uM, 0.25 mM GlcN, biological replicates 1-3): 42.2036 and 30.1606 and 32.1527
- sample/DMSO (M-833 0.000508053 uM, 2.5 mM GlcN, biological replicates 1-3): 50.9566 and 35.9886 and 36.6839
- sample/DMSO (M-833 0.00152416 uM, 0 mM GlcN, biological replicates 1-4): 49.0407 and 28.0532 and 35.8147 and 28.6219
- sample/DMSO (M-833 0.00152416 uM, 0.25 mM GlcN, biological replicates 1-4): 60.3487 and 47.5652 and 43.8309
- sample/DMSO (M-833 0.00152416 uM, 2.5 mM GlcN, biological replicates 1-4): 64.731 and 51.7963 and 44.8107 and 40.64
- sample/DMSO (M-833 0.00457247 uM, 0 mM GlcN, biological replicates 1-4): 71.0997 and 42.5489 and 51.2149 and 44.2813
- sample/DMSO (M-833 0.00457247 uM, 0.25 mM GlcN, biological replicates 1-4): 74.8396 and 65.6157 and 57.2049
- sample/DMSO (M-833 0.00457247 uM, 2.5 mM GlcN, biological replicates 1-4): 78.1904 and 72.0515 and 57.0638 and 53.24
- sample/DMSO (M-833 0.0137174 uM, 0 mM GlcN, biological replicates 1-4): 83.6593 and 61.2338 and 74.7499 and 69.6413
- sample/DMSO (M-833 0.0137174 uM, 0.25 mM GlcN, biological replicates 1-4): 88.8842 and 81.3121 and 70.4954
- sample/DMSO (M-833 0.0137174 uM, 2.5 mM GlcN, biological replicates 1-4): 87.5985 and 84.0064 and 69.7195 and 63.44
- sample/DMSO (M-833 0.0411523 uM, 0 mM GlcN, biological replicates 1-4): 94.394 and 79.7192 and 91.2101 and 80.3728
- sample/DMSO (M-833 0.0411523 uM, 0.25 mM GlcN, biological replicates 1-4): 94.2399 and 92.19 and 82.349
- sample/DMSO (M-833 0.0411523 uM, 2.5 mM GlcN, biological replicates 1-4): 91.9649 and 89.5193 and 74.7012 and 67.08
- sample/DMSO (M-833 0.123457 uM, 0 mM GlcN, biological replicates 1-4): 97.6883 and 88.7403 and 94.7713 and 86.5433
- sample/DMSO (M-833 0.123457 uM, 0.25 mM GlcN, biological replicates 1-4): 95.7043 and 95.071 and 88.6476
- sample/DMSO (M-833 0.123457 uM, 2.5 mM GlcN, biological replicates 1-4): 92.7752 and 92.3191 and 78.8024 and 71.4
- pEC50 (72 h, Fig 2B, SLI-WT, 72 h, n = 3, unit only in x-axis title, read-out: EC50 (95% confidence interval)): 7.87
- pEC50 (Fig 3C, SLI-WT, 0 mM GlcN, n = 4, unit on plot axis, read-out: EC50 M-833 (95% confidence interval)): 8.23
- pEC50 (Fig 3C, SLI-WT, 0.25 mM GlcN, n = 4, unit on plot axis, read-out: EC50 M-833 (95% confidence interval)): 8.51
- pEC50 (Fig 3C, SLI-WT, 2.5 mM GlcN, n = 4, unit on plot axis, read-out: EC50 M-833 (95% confidence interval)): 8.59
- fold more sensitive compared to the parental 3D7 parasites (SLI-WT, Fig 2B): 7 fold
- fold reduction of EC50 on addition of 2.5 mM GlcN (SLI-WT, PfSTART1 knock-down): 2.3 fold
- percent growth inhibition relative to DMSO control (0 mM GlcN, M-833 0.37037 uM, biological replicates 1-4): 99.0454 and 90.3879 and 95.7242 and 88.5343
- percent growth inhibition relative to DMSO control (0 mM GlcN, M-833 1.11111 uM, biological replicates 1-4): 99.2981 and 91.8212 and 96.4269 and 89.5933
- percent growth inhibition relative to DMSO control (0 mM GlcN, M-833 3.33333 uM, biological replicates 1-4): 98.5962 and 92.1167 and 96.403 and 89.8334
- percent growth inhibition relative to DMSO control (0 mM GlcN, M-833 10 uM, biological replicates 1-4): 99.0547 and 92.0133 and 96.7127 and 88.7461
- percent growth inhibition relative to DMSO control (0.25 mM GlcN, M-833 0.37037 uM, biological replicates 1-4): 96.4435 and 95.9038 and 89.675
- percent growth inhibition relative to DMSO control (0.25 mM GlcN, M-833 1.11111 uM, biological replicates 1-4): 96.5272 and 97.1616 and 91.872
- percent growth inhibition relative to DMSO control (0.25 mM GlcN, M-833 3.33333 uM, biological replicates 1-4): 96.834 and 96.2182 and 91.3374
- percent growth inhibition relative to DMSO control (0.25 mM GlcN, M-833 10 uM, biological replicates 1-4): 97.0851 and 96.6856 and 92.1644
- percent growth inhibition relative to DMSO control (2.5 mM GlcN, M-833 0.37037 uM, biological replicates 1-4): 94.0131 and 93.8677 and 81.9097 and 71.68
- percent growth inhibition relative to DMSO control (2.5 mM GlcN, M-833 1.11111 uM, biological replicates 1-4): 94.8008 and 94.5862 and 84.2496 and 73.4
- percent growth inhibition relative to DMSO control (2.5 mM GlcN, M-833 3.33333 uM, biological replicates 1-4): 94.7333 and 94.0783 and 84.1867 and 73.32
- percent growth inhibition relative to DMSO control (2.5 mM GlcN, M-833 10 uM, biological replicates 1-4): 95.2735 and 94.4252 and 87.0927 and 74.36
